From patent US8088734B2, “Oral delivery of peptides” (Unigene Laboratories Inc., priority 2003, dated 2012)

Legend:
[1] = in vivo; conditions: rat; for AUC / Cmax / level at 0.25 h / level at 0.5 h / level at 1 h / level at 2 h: female; for level at 0.25 h / level at 0.5 h / level at 1 h / level at 2 h: 2.5 mg
Source text: The effect of C-terminal amidation on the absorption of luteinizing hormone-releasing hormone (LHRH-NH2) from the duodenum of anesthetized rats was examined. In this study the absorption characteristics of LHRH-NH2, a naturally occurring C-terminal amidated decapeptide were compared with that of LHRH-COOH, a decapeptide with the same amino acid sequence as that of LHRH-NH2 except that the C-terminal amino acid of LHRH-COOH is gly-COOH instead of gly-NH2. Twelve female rats were anesthetized and implanted with a cannula in the carotid artery for taking blood samples at various times. Six rats were injected in the duodenum through a 27 gauge needle with 0.5 mL of LHRH-NH2 (5 mg/mL) in 0.5M citric acid and lauroylcarnitine (10 mg/mL) and six rats with injected in the duodenum with 0.5 mL LHRH-COOH) (5 mg/mL) in the same formulation. Samples of blood were taken prior to the administration of formulated LHRH-NH2 or LHRH-COOH and at 5, 15, 30, 60, and 120 minutes after peptide administration. The resulting plasma samples were analyzed for LHRH-NH2 or LHRH-COOH by high performance liquid chromatography equipped with a fluorescence detector to measure the concentration of peptide in plasma.

[2] = cited from earlier work
[3] = Blood levels of salmon calcitonin after direct injection into duodenum, ileum or colon of rats; type: in vivo; conditions: active components injected directly into duodenum
Source text: The acid is believed to lower the local intestinal pH (where the active agent has been released) to levels below the optimal range for many intestinal proteases and other intestinal enzymes. This decrease in pH reduces the proteolytic activity of the intestinal proteases, thus affording protection to the peptide and the membrane translocator from potential degradation. The activity of these proteases is diminished by the temporarily acidic environment provided by the invention. It is preferred that sufficient acid be provided that local intestinal pH is lowered temporarily to 5.5 or below, preferably 4.7 or below and more preferably 3.5 or below. The sodium bicarbonate test described below (in the section captioned “the pH-Lowering Agent”) is indicative of the required acid amount.

[4] = Oral bioavailability of sCTgly vs sCT-NH2, enteric coated capsules, dog model; type: in vivo, Beagle dogs; conditions: for Cmax: male, Beagle, read-out: Mean Cmax ± SEM; for Cmax / Mean AUC ± SERM: oral enteric coated capsule, dog plasma, adjusted to a 1 mg dose
Description: A study was carried out in a dog model to compare the pharmacokinetic parameters of orally delivered glycine-extended sCT (sCTgly) with those of amidated sCT (sCT-NH2).
Eight adult male Beagle dogs, weighing between 12 and 16 kg, were used in this study. Dogs were fasted overnight prior to administration of the test peptide, but were allowed free access to water. A wash-out period of at least 1 week occurred between experiments for each dog. Each dog received an orally administered, enteric coated gelatin capsule that contained 1.11 mg of sCTgly in week 1 and 1.11 mg of sCT-NH2 in week 2. Prior to capsule administration, a 20-gauge intravenous (IV) catheter was inserted into a brachial vein for the collection of blood samples. Two pre-dose samples of 3 ml each were collected from the brachial vein.
After administration of the capsule, 3 ml blood samples were collected from the brachial vein at 15 minute intervals up to 240 minutes post-administration. Blood samples were collected into new heparinized Monovette sampling syringes. Samples were placed on ice before being centrifuged for 10 minutes at approximately 2750 rpm at 2-8° C. The plasma supernatant was transferred to color-coded microcentrifuge tubes labeled with the time point and stored frozen at −20° C. prior to analysis to determine the concentration of sCTgly or sCT-NH2.
The concentration of sCTgly in plasma was determined by radioimmunoassay with an RIA kit from Peninsula Laboratories. sCT-NH2 concentration in plasma was determined by a sandwich ELISA immunoassay using a kit from Diagnostic Systems Laboratories Inc. From the pharmacokinetic profile of sCTgly or sCT-NH2 in plasma, the parameters of Cmax (peak of plasma concentration in pg/ml) and AUC (Area under the Curve) were determined. All measured values were normalized for a 1 mg peptide dose for either of the two peptides.

AUC [1]	Cmax [1]	level at 0.25 h [1]	level at 0.5 h [1]	level at 1 h [1]	level at 2 h [1]	time at which maximum concentration (Cmax) was detected in plasma [1]	AUC relative to free acid form of LHRH [1]	amount detected in plasma relative to LHRH-COOH [1]	Tmax for blood levels [3]	Cmax [4]	Mean AUC ± SERM [4]	mean AUC relative to sCTgly ([4]; oral, dog)	mean Cmax relative to sCTgly ([4]; oral, dog)	Structure (SMILES)	blood levels after injection at conventional dosages ([2]; man)	duration of beneficial effect on osteoclasts ([2]; man)	peak levels at which proven effective against osteoporosis ([2]; nasally administered, 200 International units)	peak levels at which some patients report gastrointestinal distress ([2]; patients)	half-life ([2]; subcutaneous administration in man)	peak serum concentration ([2]; subcutaneous administration, 100 International units)
296 ng·h/mL	654 ± 103 ng/mL	654 ± 103 ng/mL	391 ± 81 ng/mL	163 ± 68 ng/mL	56 ± 19 ng/mL	five								CC(C)C[C@H](NC(=O)CNC(=O)[C@H](Cc1ccc(O)cc1)NC(=O)[C@H](CO)NC(=O)[C@H](Cc1c[nH]c2ccccc12)NC(=O)[C@H](Cc1cnc[nH]1)NC(=O)[C@@H]1CCC(=O)N1)C(=O)N[C@@H](CCCN=C(N)N)C(=O)N1CCC[C@H]1C(=O)NCC(=O)O [LHRH-COOH]						
1820 ng·h/mL	3280 ± 893 ng/mL	3280 ± 893 ng/mL	2900 ± 612 ng/mL	1280 ± 282 ng/mL	382 ± 103 ng/mL	five	6 times	5 times						CC(C)C[C@H](NC(=O)CNC(=O)[C@H](Cc1ccc(O)cc1)NC(=O)[C@H](CO)NC(=O)[C@H](Cc1c[nH]c2ccccc12)NC(=O)[C@H](Cc1cnc[nH]1)NC(=O)[C@@H]1CCC(=O)N1)C(=O)N[C@@H](CCCNC(=N)N)C(=O)N1CCC[C@H]1C(=O)NCC(N)=O [LHRH-NH2]						
									5 to 15 min	3.2 ng/mL	148,000 ± 18,200 pg · min/ml	5.9 times	6.6 times	CC(C)C[C@H](NC(=O)[C@H](CCCCN)NC(=O)CNC(=O)[C@H](CC(C)C)NC(=O)[C@@H](NC(=O)[C@@H]1CSSC[C@H](N)C(=O)N[C@@H](CO)C(=O)N[C@@H](CC(N)=O)C(=O)N[C@@H](CC(C)C)C(=O)N[C@@H](CO)C(=O)N[C@@H]([C@@H](C)O)C(=O)N1)C(C)C)C(=O)N[C@@H](CO)C(=O)N[C@@H](CCC(N)=O)C(=O)N[C@@H](CCC(=O)O)C(=O)N[C@@H](CC(C)C)C(=O)N[C@@H](Cc1c[nH]cn1)C(=O)N[C@@H](CCCCN)C(=O)N[C@@H](CC(C)C)C(=O)N[C@@H](CCC(N)=O)C(=O)N[C@H](C(=O)N[C@@H](Cc1ccc(O)cc1)C(=O)N1CCC[C@H]1C(=O)N[C@@H](CCCNC(=N)N)C(=O)N[C@H](C(=O)N[C@@H](CC(N)=O)C(=O)N[C@H](C(=O)NCC(=O)N[C@@H](CO)C(=O)NCC(=O)N[C@H](C(=O)N1CCC[C@H]1C(N)=O)[C@@H](C)O)[C@@H](C)O)[C@@H](C)O)[C@@H](C)O [sCT-NH2]	no detectable blood levels more than two hours after injection	more than 24 hours	≥ 10 picograms per milliliter	≥ 200 picograms per milliliter	20 to 40 min	about 250 picograms per milliliter
										0.485 ± 0.106 ng/mL	25,125 ± 5,525 pg · min/ml			CC(C)C[C@H](NC(=O)[C@H](CCCCN)NC(=O)CNC(=O)[C@H](CC(C)C)NC(=O)[C@@H](NC(=O)[C@@H]1CSSC[C@H](N)C(=O)N[C@@H](CO)C(=O)N[C@@H](CC(N)=O)C(=O)N[C@@H](CC(C)C)C(=O)N[C@@H](CO)C(=O)N[C@@H]([C@@H](C)O)C(=O)N1)C(C)C)C(=O)N[C@@H](CO)C(=O)N[C@@H](CCC(N)=O)C(=O)N[C@@H](CCC(=O)O)C(=O)N[C@@H](CC(C)C)C(=O)N[C@@H](Cc1c[nH]cn1)C(=O)N[C@@H](CCCCN)C(=O)N[C@@H](CC(C)C)C(=O)N[C@@H](CCC(N)=O)C(=O)N[C@H](C(=O)N[C@@H](Cc1ccc(O)cc1)C(=O)N1CCC[C@H]1C(=O)N[C@@H](CCCNC(=N)N)C(=O)N[C@H](C(=O)N[C@@H](CC(N)=O)C(=O)N[C@H](C(=O)NCC(=O)N[C@@H](CO)C(=O)NCC(=O)N[C@H](C(=O)N1CCC[C@H]1C(=O)NCC(=O)O)[C@@H](C)O)[C@@H](C)O)[C@@H](C)O)[C@@H](C)O [sCTgly]						
